Entries after “also recorded” stand apart in the source; their conditions may differ.
Legend:
[1] = tested on: sorting reaction (sortase cleavage of Seb-Spa490-524 P2 precursor at the LPXTG motif); format: cell-based, S. aureus OS2
[2] = tested on: S. aureus OS2 (pSeb-Spa490-524); format: cell-based
[3] = biological target: sortase (Staphylococcus aureus, UniProt Q2FV99); format: biochemical; conditions: pre-incubation of staphylococcal extracts with 5 mM MTSET
[4] = biological target: T1, SrtADN (Staphylococcus aureus, UniProt Q2FV99); format: biochemical, S. aureus; conditions: 5 mM MTSET or 5 mM pHMB, 5 μM SrtADN
[5] = tested on: cell wall sorting reaction (surface protein anchoring); format: cell-based, S. aureus OS2
[6] = tested on: cell wall synthesis; format: cell-based, staphylococci (S. aureus OS2)
[7] = tested on: staphylococci; format: cell-based, S. aureus OS2
[8] = tested on: wild-type staphylococci, strains SM317 and SM329; format: cell-based, S. aureus
[9] = biological target: T1, SrtADN; format: biochemical, S. aureus; conditions: absence of peptidoglycan substrate
Excerpt: The N-terminal membrane anchor segment of […] (residues 2-25) were replaced with a six-histidine tag ([…]). In the absence of the peptidoglycan substrate, SrtA DN catalyzes peptide bond hydrolysis and cleaves LPETG peptide, presumably between the threonine and the glycine (Ton-That et al., 2000).

T1 sequence (Q2FV99 26-206): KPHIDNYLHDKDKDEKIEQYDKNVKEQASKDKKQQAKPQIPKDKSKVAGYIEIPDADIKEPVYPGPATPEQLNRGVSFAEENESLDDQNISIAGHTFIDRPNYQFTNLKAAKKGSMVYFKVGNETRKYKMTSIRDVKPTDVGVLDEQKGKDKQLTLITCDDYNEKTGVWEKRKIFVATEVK
sortase, sequence (Q2FV99 whole entry): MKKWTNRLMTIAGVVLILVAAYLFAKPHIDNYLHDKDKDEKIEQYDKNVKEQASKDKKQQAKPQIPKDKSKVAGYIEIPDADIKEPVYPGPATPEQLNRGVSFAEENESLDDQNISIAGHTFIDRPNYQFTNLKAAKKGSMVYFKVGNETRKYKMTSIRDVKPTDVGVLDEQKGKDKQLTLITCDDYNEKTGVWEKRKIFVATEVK

Compound: C[N+](C)(C)CCSS(C)(=O)=O [[2-(trimethylammonium)ethyl]methanethiosulfonate]
- interference with cleavage of sorting signals at the LPXTG motif / cell wall sorting (in words) [1]: interfered with the cleavage of sorting signals at the LPXTG motif
- incorporation of [35S]methionine by staphylococci [2]: prevented incorporation
- protein export (Sec-dependent export of P1 precursor) [2]: remained unaltered
- inhibition of LPXTG peptide cleavage [3]: inhibited
- inhibition of LPXTG peptide cleavage [4]: inhibited; also recorded: abolished all enzymatic activity

Compound: moenomycin
- [P2]/[M] [5]: 0.24 ± 0.04
- effect on rate of cell wall sorting (P2 precursor accumulation), in words [5]: similar, albeit weaker effect
- fold inhibition of cell wall synthesis [6]: 1.6 fold
- growth rate of staphylococci [7]: reduced the growth rate

Compound: CS(=O)(=O)SCCS(=O)(=O)O [(2-sulfonatoethyl)methanethiosulfonate]
- interference with cleavage of sorting signals at the LPXTG motif / cell wall sorting (in words) [1]: interfered with sorting albeit not as effectively as MTSET

Compound: p-hydroxymercuribenzoic acid [p-hydroxymercuribenzoic acid (pHMB)]
- interference with cleavage of sorting signals at the LPXTG motif / cell wall sorting (in words) [1]: displayed an inhibitory effect
- inhibition of LPXTG peptide cleavage [4]: inhibited

Compound: NC(=O)CI [iodoacetamide]
- interference with cleavage of sorting signals at the LPXTG motif / cell wall sorting (in words) [1]: did not

Compound: OCCS [2-mercaptoethanol]
- interference with cleavage of sorting signals at the LPXTG motif / cell wall sorting (in words) [1]: did not affect the sorting reaction

Compound: O[C@H](CS)[C@H](O)CS (racemic) [dithiothreitol (DTT), dithiothreitol]
- interference with cleavage of sorting signals at the LPXTG motif / cell wall sorting (in words) [1]: did not affect the sorting reaction

Compound: lysostaphin
- growth inhibition by lysostaphin [8]: inhibited growth of wild-type staphylococci

Compound: penicillin
- [P2]/[M] [5]: 0.10 ± 0.01
- effect on rate of cell wall sorting (P2 precursor accumulation), in words [5]: did not alter the rate of cell wall sorting
- fold inhibition of cell wall synthesis [6]: 3.3 fold
- growth rate of staphylococci [7]: reduced the growth rate

Compound: methylmethane thiosulfonate
- inhibition of LPETG peptide cleavage (peptide bond hydrolysis) [9]: inhibited

Compound: O=C(O)CI [iodoacetic acid]
- interference with cleavage of sorting signals at the LPXTG motif / cell wall sorting (in words) [1]: did not

Compound: CCN1C(=O)C=CC1=O [N-ethylmaleimide]
- interference with cleavage of sorting signals at the LPXTG motif / cell wall sorting (in words) [1]: did not

Compound: CN[C@H](CC(C)C)C(=O)N[C@H]1C(=O)N[C@@H](CC(N)=O)C(=O)N[C@H]2C(=O)N[C@H]3C(=O)N[C@H](C(=O)N[C@H](C(=O)O)c4cc(O)cc(O)c4-c4cc3ccc4O)[C@H](O)c3ccc(c(Cl)c3)Oc3cc2cc(c3O[C@@H]2O[C@H](CO)[C@@H](O)[C@H](O)[C@H]2O[C@H]2C[C@](C)(N)[C@H](O)[C@H](C)O2)Oc2ccc(cc2Cl)[C@H]1O [vancomycin]
- [P2]/[M] [5]: 0.47 ± 0.04
- effect on rate of cell wall sorting (P2 precursor accumulation), in words [5]: led to a steady accumulation of P2 precursor
- fold inhibition of cell wall synthesis [6]: 9.5 fold
- inhibition of cell wall synthesis (lysine/leucine ratio) [6]: 20 fold

Source: US7101692B2 (priority 1999, dated 2006)
